Patent US5538950A, “Endothelin antagonists and their preparation” (Fujisawa Pharmaceutical Co., Ltd., priority 1991, dated 1996)
Counter-ions that a name gives are not always drawn.

Tested on: endothelin receptor (crude receptor membrane preparation of porcine aorta)
Test: Radioligand binding assay: 125I-endothelin-1 binding to porcine aorta membrane
Settings: ^125 I-Endothelin-1 1.67×10^-11 M, room temperature, 60 minutes, read-out: Effect on specific binding of ^125 I-endothelin-1 in porcine aorta membrane, IC50
Protocol: Radioligand binding assay:
(a) Crude receptor membrane preparation:
Porcine aorta was purchased from Pel-Freez Biologicals (U.S.A.) and stored at -80° C. until use.
Porcine aorta (50 g) was thawed and dissected free from fatty tissue, minced with scissors and then homogenized with a polytron (Brinkmann PT-20, maximal speed for 3×10 sec) in 100 ml buffer (0.25M sucrose, 10 mM Tris-HCl, 0.1 mM EDTA).
The homogenate was centrifuged at 10,000 g for 20 minutes at 4° C.
The supernatant, containing the plasma membrane fraction, was centrifuged at 100,000 g for 60 minutes at 4° C., and then resultant pellets were referred to as crude membrane fractions.
The pellets were resuspended in 25 ml of binding assay buffer (50 mM Tris-HCl, 100 mM NaCl, 5 mM MgCl2, 1.5 μg/ml phenylmethylsulfonyl fluoride (PMSF), 120 μg/ml bacitracin, 12 μg/ml leupepcin, 6 μg/ml chymostain, 0.1% bovine serum albumin (BSA), pH 7.5).
The aorta membrane fractions were stored at -80° C. until use.
(b) ^125 I-endothelin-1 binding assay: […]
After incubation, the incubation mixture were filtered through Glass-fiber GF/C filter (pretreated with 0.1% polyethylene imine for 3 hours prior to use) using cell harvester (Brandel M-24S). […] The filters were counted in a gamma counter (Packard Auto Gamma Model 5650).

IC50: 5.2 nM
Structure (SMILES): CC(C)C[C@H](CC(=O)N1CCCCC1)C(=O)N[C@H](Cc1cn(C)c2ccccc12)C(=O)N[C@H](Cc1ccccn1)C(N)=O [Compound A, [(2R)-2-(Piperidinocarbonyl)methyl-4-methylvaleryl]-D-TrP(Me)-D-Pya-NH2 hydrochloride]
